Source: patent publication US20240076609A1, “COMPOSITIONS AND METHODS FOR CULTURING AND EXPANDING CELLS” (LIFE TECHNOLOGIES CORPORATION, priority 2017, published 2024)
Where “and” joins values, the source holds several entries; their conditions need not be identical. Identical values can stand only once. Entries after “also recorded” stand apart in the source; their conditions may differ.

Tests used:
[1] = tested on: Primary human T cells; test: CD8+/CD4+ phenotype with 2-DG at different time points and every feed; type: cell-based; conditions: for Fold Increase compared to Baseline: Day 10 vs Day 0 ratio
Method: FIG. 45 represents the data shown in Table 39 which highlights the fold increase in CD8+ to CD4+ ratio of T cells cultured with 2-DG at different time points and every time the cells were fed.
(§1) Phenotype: Primary human T cells were expanded for 10 days with and without 2-DG and 5% human AB serum. DYNABEADS® were removed from 2×10^6 cells by magnetic separation. Surface staining was performed with antibodies against CD3 (Invitrogen, Cat. No. CD0329), CD4 (Molecular Probes, Cat. No. A15858), CD8 (Invitrogen, Cat. No. MHCD0828). Flow cytometric analysis was performed on a Gallios flow cytometer and Kaluza software (Beckman Coulter, Indianapolis IN).

[2] = tested on: Pan CD3+ T cells; test: CD8+/CD4+ phenotype by flow cytometry after 10 days with 2-DG; type: cell-based, human; conditions: for CD8+ T cell population (frequency): day 10
Method: as §1, with “IN). Phenotype: Primary human T cells were expanded for 10 days with and without 2-DG and 5% human AB serum. DYNABEADS® were removed from 2×10^6 cells by magnetic separation. Surface staining was performed with antibodies against CD3 (Invitrogen, Cat. No. CD0329), CD4 (Molecular Probes, Cat. No. A15858), CD8 (Invitrogen, Cat. No. MHCD0828). Flow cytometric analysis was performed on a Gallios flow cytometer and Kaluza software (Beckman Coulter, Indianapolis IN).” for “IN).”

[3] = tested on: Primary human T cells; test: Cytokine production upon re-stimulation (35-Plex Luminex) with 2-DG; type: cell-based; conditions: expanded 12 days, multiplexed cytokine assay
Source text: Cytokine Profiles: Primary human T cells from normal donors were negatively isolated from PBMCs with the DYNABEADS® UNTOUCHED™ Human T Cells kit (Thermo Fisher Scientific, Cat. No. 11344D). T cells (seeding density 1×10^6 vc/mL) were activated with DYNABEADS® Human T-Expander CD3/CD28 (Thermo Fisher Scientific, Cat. No. 11141D) at a ratio of 3 beads per T cell and cultured in serum-free and animal origin free medium or control medium X-VIVO™ 15 (Lonza, Cat. No. BE02-054Q) supplemented with 5% human AB serum. T cells were counted on days 5, 7, 10, and 12 on a Vi-CELL XR analyzer (Beckman Coulter, Indianapolis IN) and fed to a density of 5×10^5 vc/mL on days 3, 5, and 7 and to a density of 1×10^6 vc/mL on day 10. DYNABEADS® were magnetically removed from cultures on day 10 and cells were spun to remove conditioned medium and rested overnight in fresh medium. […]
T cells were expanded for 12 days and re-stimulated with DYNABEADS® Human T-Expander CD3/CD28. Cytokine production upon re-stimulation was assessed with Invitrogen Cytokine Human Magnetic 35-Plex Panel for LUMINEX™. […]
T cells were expanded for 12 days and re-stimulated with DYNABEADS® Human T-Expander CD3/CD28. Cytokine production upon re-stimulation was assessed with Invitrogen Cytokine Human Magnetic 35-Plex Panel for LUMINEX™.

[4] = 0.25 mM 2-DG at Day 0, Day 10 of culture
[5] = 0.25 mM 2-DG at Day 0, after 10 days of culture
[6] = 0.25 mM 2-DG at Day 3, Day 10 of culture
[7] = 0.25 mM 2-DG at Day 3, after 10 days of culture
[8] = 0.25 mM 2-DG at Day 5, Day 10 of culture
[9] = 0.25 mM 2-DG at Day 5, after 10 days of culture
[10] = 0.25 mM 2-DG at Day 7, Day 10 of culture
[11] = 0.25 mM 2-DG at Day 7, after 10 days of culture
[12] = 0.25 mM 2-DG at Every Feed, Day 10 of culture
[13] = 0.25 mM 2-DG at Every Feed, after 10 days of culture
[14] = 0.25 mM 2-DG, Day 10 of culture
[15] = 0.25 mM 2-DG, Day 10, single donors
[16] = 0.5 mM 2-DG, Day 10, single donors

In the case of `O=CC[C@@H](O)[C@H](O)[C@H](O)CO` [2-DG, 2-Deoxy-D-Glucose], the “% CD4+” value [1, 4] is reported as 74.78%, the “% CD8+” value [1, 4] is reported as 22.88% and the “% Ratios (CD8+/CD4+)” value [1, 4] is reported as 0.31. For the same compound, the “Fold Increase compared to Baseline” value ([1]; 0.25 mM 2-DG at Day 0) was 1.38, the “% CD4+” value [1, 5] was 74.78% and the “% CD8+” value [1, 5] was 22.88%. The “% Ratios (CD8+/CD4+)” value [1, 5] was 0.31, the “% CD4+” value [1, 6] was 70.62% and the “% CD8+” value [1, 6] was 25.76%. For the same compound, the “% Ratios (CD8+/CD4+)” value [1, 6] was 0.36, the “Fold Increase compared to Baseline” value ([1]; 0.25 mM 2-DG at Day 3) was 1.64 and the “% CD4+” value [1, 7] was 70.62%. For the same compound, the “% CD8+” value [1, 7] was 25.76%, the “% Ratios (CD8+/CD4+)” value [1, 7] was 0.36 and the “% CD4+” value [1, 8] was 76.18%. For the same compound, the “% CD8+” value [1, 8] was 21.26%, the “% Ratios (CD8+/CD4+)” value [1, 8] was 0.28 and the “Fold Increase compared to Baseline” value ([1]; 0.25 mM 2-DG at Day 5) was 1.26. The “% CD4+” value [1, 9] was 76.18%, the “% CD8+” value [1, 9] was 21.26% and the “% Ratios (CD8+/CD4+)” value [1, 9] was 0.28. The “% CD4+” value [1, 10] was 73.28%, the “% CD8+” value [1, 10] was 23.91% and the “% Ratios (CD8+/CD4+)” value [1, 10] was 0.33. The “Fold Increase compared to Baseline” value ([1]; 0.25 mM 2-DG at Day 7) was 1.47, the “% CD4+” value [1, 11] was 73.28% and the “% CD8+” value [1, 11] was 23.91%. For the same compound, the “% Ratios (CD8+/CD4+)” value [1, 11] was 0.33, the “% CD4+” value [1, 12] was 76.76% and the “% CD8+” value [1, 12] was 20.35%. For the same compound, the “% Ratios (CD8+/CD4+)” value [1, 12] was 0.27, the “Fold Increase compared to Baseline” value ([1]; 0.25 mM 2-DG at Every Feed) was 1.19 and the “% CD4+” value [1, 13] was 76.76%. For the same compound, the “% CD8+” value [1, 13] was 20.35%, the “% Ratios (CD8+/CD4+)” value [1, 13] was 0.27 and the “Fold Increase in CD8+ to CD4+ ratio” value ([1]; 0.25 mM 2-DG every time cells were fed) was 3 fold. The “Fold Increase in CD8+ to CD4+ ratio” value ([1]; 0.25 mM 2-DG on day 7 only) was 3 fold, the “% CD4+” value [2, 14] was 39.21% and 32.39% and 22.68% and the “% CD8+” value [2, 14] was 53.46% and 63.2% and 70.32%. For the same compound, the “% Ratios (CD8+/CD4+) (Avg)” value ([2]; 0.25 mM 2-DG, Day 10 of culture, average) was 2.1, the “Fold Increase compared to Baseline” value ([2]; 0.25 mM 2-DG, Day 10 vs Day 0 CD8+/CD4+ ratio) was 3.02 and 2.49 and 3.99 and the “% Ratios (CD8+/CD4+) (Avg)” value ([2]; 0.25 mM 2-DG, Day 10) was 2.1. The “% CD4+” value [2, 15] was 39.21% and 32.39% and 22.68%, the “% CD8+” value [2, 15] was 53.46% and 63.2% and 70.32% and the “% Ratios (CD8+/CD4+)” value [2, 15] was 1.36 and 1.95 and 3.10. For the same compound, the “Fold Increase (Avg)” value ([2]; 0.25 mM 2-DG, Day 10 vs Day 0) was 3.2, the “Fold Increase in CD8+ to CD4+ ratio” value ([2]; 0.25 mM 2-DG, Day 10 vs Day 0, single donors) was 3.02 and 2.49 and 3.99 and the “CD8+ T cell population (frequency)” value ([2]; 0.25 mM and 0.5 mM 2-DG, single donor) was 48%. The “% CD4+” value ([2]; 0.5 mM 2-DG, Day 10 of culture) was 37.08% and 29.85% and 23.85%, the “% CD8+” value ([2]; 0.5 mM 2-DG, Day 10 of culture) was 55.04% and 66.57% and 68.64% and the “% Ratios (CD8+/CD4+)” value ([2]; 0.5 mM 2-DG, Day 10 of culture) was 1.48 and 2.23 and 2.88. The “% Ratios (CD8+/CD4+) (Avg)” value ([2]; 0.5 mM 2-DG, Day 10 of culture, average) was 2.2, the “Fold Increase compared to Baseline” value ([2]; 0.5 mM 2-DG, Day 10 vs Day 0 CD8+/CD4+ ratio) was 3.29 and 2.85 and 3.7 and the “% Ratios (CD8+/CD4+) (Avg)” value ([2]; 0.5 mM 2-DG, Day 10) was 2.2. For the same compound, the “% CD4+” value [2, 16] was 37.08% and 29.85% and 23.85%, the “% CD8+” value [2, 16] was 55.04% and 66.57% and 68.64% and the “% Ratios (CD8+/CD4+)” value [2, 16] was 1.48 and 2.23 and 2.88. The “Fold Increase (Avg)” value ([2]; 0.5 mM 2-DG, Day 10 vs Day 0) was 3.6, the “Fold Increase in CD8+ to CD4+ ratio” value ([2]; 0.5 mM 2-DG, Day 10 vs Day 0, single donors) was 3.29 and 2.85 and 3.7 and the “% CD4+” value ([2]; 1 mM 2-DG, Day 10, Table 26) was 50%. The “% CD8+” value ([2]; 1 mM 2-DG, Day 10, Table 26) was 42%, the “% Ratios (CD8+/CD4+)” value ([2]; 1 mM 2-DG, Day 10, Table 26) was 0.85 and the “Fold Increase compared to Baseline” value ([2]; 1 mM 2-DG, Day 10 vs Day 0, Table 26) was 2.18. For the same compound, the “% CD4+” value ([2]; 2 mM 2-DG, Day 10, Table 26) was 42%, the “% CD8+” value ([2]; 2 mM 2-DG, Day 10, Table 26) was 50% and the “% Ratios (CD8+/CD4+)” value ([2]; 2 mM 2-DG, Day 10, Table 26) was 1.18. For the same compound, the “Fold Increase compared to Baseline” value ([2]; 2 mM 2-DG, Day 10 vs Day 0, Table 26) was 3.01, the “Fold Increase in CD8+ to CD4+ ratio” value ([2]; 4 mM 2-DG, 10 days) was 4.1 fold and the “% CD4+” value ([2]; 4 mM 2-DG, Day 10, Table 26) was 23%. For the same compound, the “% CD8+” value ([2]; 4 mM 2-DG, Day 10, Table 26) was 63%, the “% Ratios (CD8+/CD4+)” value ([2]; 4 mM 2-DG, Day 10, Table 26) was 2.80 and the “Fold Increase compared to Baseline” value ([2]; 4 mM 2-DG, Day 10 vs Day 0, Table 26) was 7.15. The “CD8+ T cell population (frequency)” value ([2]; 4 mM 2-DG) was 63% and the “cytokine production / function of the cells upon re-stimulation” value [3] was “no change in cytokine production; also recorded: does not alter the function of the cells”.
